Test results published in patent US12611442B2, “mRNA encoding engineered CFTR” (Translate Bio, Inc., priority 2019, dated 2026).

Tests used:
Type in all cases: cell-based
[1] = tested on: FRT cells; assay: Time-course Ussing chamber assay (duration of activity, 22 and 44 hours); conditions: at 44 hours (measured at 22 and 44 hours); FIG. 14A, 14B
Description: In this example, duration of activity of various phosphomimetic CFTR mutants were tested in combination with the K14R mutation using a time-course Ussing chamber assay as described in Example 3.
Activity of various CFTR proteins listed in Table 12 were measured at 22 and 44 hours. Short-circuit current (Isc), the movement of ions as measured in the Ussing chamber from active transport, was plotted for each CFTR protein at 22 and 44 hours.

[2] = tested on: HEK293 cells; assay: CFTR protein expression by protein gel / Western blot (C band); conditions: for C-band expression (quantification of Western blot): FIG. 11A, 11B; for expression in the C band (mature complex glycosylated CFTR): HEK293 lysates, FIG. 18A-18C
Description: The CFTR band is depicted by an arrow (FIG. 3A).
To examine the expression of CFTR mutants, expression of the wild-type CFTR, 15E, 13E, and E1371Q mutants was quantified as shown in FIG. 11A and FIG. 11B.
Studies were also performed to assess in vitro translation and tolerability of CFTR mutants. […] The “C band” refers to mature complex glycosylated form of CFTR.

[3] = tested on: FRT cells; assay: Ussing chamber assay: short-circuit current (chloride ion transport) of cells transfected with WT or engineered CFTR mRNA; sequential forskolin, VX-770, CFTRinh-172
Description: Chloride ion transport was measured by an Ussing chamber. This assay provides an indication of chloride flux based on the principle that the epithelium pumps ions from one side to another and ions leak back through tight junctions situated between epithelial cells. The voltage difference between two sides of the epithelium is measured using two voltage electrodes placed near the tissue/epithelium. The voltage is cancelled out by injecting current, using two other electrodes placed away from the epithelium. The short circuit current is measured as net chloride ion transport.
Traces show short-circuit current measurements during sequential additions of forskolin, an activator of CFTR-mediated chloride secretion, and VX-770 (ivacaftor), a potentiator compound that directly increases phosphorylation-dependent CFTR channel opening on amphotericin B-permeabilized membranes. CFTR proteins A-D responded to forskolin activation resulting in increased chloride ion conductance. Forskolin activation was not observed for CFTR Protein E, the ATP hydrolysis deficient E1371Q mutant. Further addition of VX-770 increased conductance in CFTR Proteins B-D.
In this example, activation of various engineered CFTR protein mutants (proteins B-E, discussed above) were compared with the activation of wild type CFTR (protein A) using the Ussing assay as described in Example 3. In this example the engineered CFTR protein activity was tested at a low concentration of 0.35 μg (FIG. 4).
In this example, activities of various engineered phosphomimetic CFTR protein mutants (Table. 9) were compared with the activity of wild-type CFTR using the Ussing chamber assay as described in Example 3.

[4] = HEK293 cells, versus wild-type CFTR
[5] = 0.35 μg (low concentration), FRT cells, FIG. 4

13E: S422E, S660E, S670E, S686E, T690E, S700E, S712E, S753E, T787E, T788E, T790E, S795E, S813E (codon optimized: SEQ ID NO: 52)
remaining activity (short-circuit current, Isc) [1]: highest remaining activity at 44 hours | C-band expression (quantification of Western blot) [2, 4]: increased C-band expression | increase in protein (C-band, quantification of Western blot) ([2]; HEK293 cells, versus wild-type CFTR, FIG. 11B): greater than 2 fold | expression in the C band (mature complex glycosylated CFTR) [2]: increased expression in the C band | CFTR activity, glutamate (E) versus aspartate (D) substitutions ([3]; 13 or 15 R-domain substitutions, FRT cells, FIG. 9A, 9B, 11E): greater CFTR activity | effect of additional K14R substitution on chloride conductance of the named protein ([3]; FIG. 14C): no effect | change in activity when K14R mutation is combined with the named phosphomimetic mutant ([3]; maximum activated current, FRT cells, FIG. 11C, 11D): no significant increase in the activity

15E/K14R: K14R plus the 15E substitutions (codon optimized: SEQ ID NO: 51)
remaining activity (short-circuit current, Isc) [1]: highest remaining activity at 44 hours

E1371Q/K14R: E1371Q plus K14R (codon optimized: SEQ ID NO: 49)
remaining activity (short-circuit current, Isc) [1]: high remaining activity at 44 hours | expression compared to wild-type CFTR and to E1371Q-only CFTR ([2]; FIG. 13B): increased expression | expression in the C band (mature complex glycosylated CFTR) [2]: increased expression in the C band | activity compared to wild-type CFTR and to E1371Q-only CFTR ([3]; FRT cells, FIG. 13A, 13B): increased activity

B1: CFTR Protein E: E1371Q, ATP hydrolysis deficient (SEQ ID NO: 44, 48) (nucleic acid)
DNA: GTGCAGCCCCTGCTGCTCGGCAGAATCATCGCCTCATACGATCCAGACAACAAGGAAGAAAGAAGCATCGCCATCTACCTGGGCATTGGCCTCTGCCTCCTGTTTATTGTGCGGACTCTGCTGCTGCACCCAGCAATTTTCGGGTTGCATCATATTGGCATGCAGATGCGCATTGCTATGTTTTCCCTCATCTACAAAAAGACACTGAAACTCAGCTCCCGGGTGCTGGACAAGATCTCCATCGGCCAACTGGTGTCTCTCCTGAGCAATAACTTGAATAAGTTCGACGAAGGGCTGGCCCTGGCACACTTCGTGTGGATTGCCCCCCTGCAGGTGGCCCTGCTGATGGGACTGATTTGGGAACTGCTGCAGGCTAGCGCTTTCTGCGGCCTGGGGTTCCTGATCGTGCTGGCACTGTTTCAGGCAGGCCTGGGCCGTATGATGATGAAGTACAGAGACCAGAGGGCCGGGAAGATCTCCGAACGGCTCGTTATTACCTCTGAGATGATCGAGAACATTCAGTCTGTGAAAGCCTACTGCTGGGAGGAGGCTATGGAGAAGATGATCGAGAATCTGAGACAGACCGAGCTGAAGCTGACCAGAAAGGCCGCCTACGTGAGGTACTTCAACAGCAGTGCCTTCTTCTTCTCTGGCTTCTTCGTTGTGTTTCTGAGCGTGCTGCCATACGCTCTCATCAAAGGCATCATCCTGCGGAAGATCTTCACCACCATCAGCTTTTGCATCGTGCTTAGAATGGCCGTGACCCGGCAGTTCCCATGGGCCGTGCAAACTTGGTATGATTCCCTGGGCGCCATCAACAAAATCCAGGATTTCCTGCAGAAGCAGGAATACAAGACACTCGAATATAATCTCACAACTACTGAGGTGGTTATGGAGAACGTGACTGCCTTCTGGGAGGAGGGGTTCGGAGAGCTTTTTGAGAAGGCAAAACAGAATAACAACAACCGCAAAACCAGCAACGGCGACGACAGCCTGTTCTTCTCCAATTTTTCTCTCCTGGGAACACCCGTCCTCAAAGACATCAACTTTAAGATCGAGAGGGGACAGCTGCTCGCAGTCGCCGGATCCACAGGCGCCGGCAAGACCTCTCTGCTGATGGTTATCATGGGCGAACTGGAGCCATCCGAGGGCAAGATTAAGCACAGTGGAAGAATCTCCTTTTGTAGCCAGTTCAGTTGGATTATGCCCGGCACTATTAAGGAGAATATCATTTTTGGGGTGAGCTATGATGAGTATCGGTATCGGAGCGTTATCAAAGCCTGTCAGCTGGAGGAGGATATCAGCAAATTCGCAGAGAAGGATAATATCGTGCTGGGGGAGGGGGGAATCACCCTGAGCGGAGGCCAGAGAGCCAGAATCTCACTGGCCCGGGCCGTCTACAAGGACGCCGACCTTTACCTTCTGGACAGTCCCTTTGGATATCTGGATGTGCTGACTGAAAAGGAGATCTTCGAGTCTTGTGTGTGCAAG
C-band expression (quantification of Western blot) [2, 4]: increased C-band expression | forskolin activation ([3]; 0.35 μg (low concentration), FIG. 4): forskolin activation at a lower dose in comparison to other constructs tested | conductance prior to forskolin addition [3, 5]: significant pre-forskolin conductance | overall activity compared to wild-type CFTR [3, 5]: overall increased activity | response to forskolin activation (chloride ion conductance, short-circuit current) ([3]; 0.5 μg CFTR (high concentration), amphotericin B-permeabilized membranes, FIG. 3B): not observed | forskolin activation and increased activity by addition of VX-770 ([3]; FIG. 12A, 12B): minimal response to VX-770 | activity / conductance (short circuit current) compared to wild-type CFTR ([3]; FRT cells, FIG. 12A, 12B): overall higher conductance than the wild-type CFTR | activity pattern across doses ([3]; doses 0.05-0.35 μg/well, FIG. 5): consistent activity pattern across treatments | effect of K1218R mutation on activity of the named CFTR protein ([3]; short-circuit conductivity, FIG. 15C): decreases activity
